Laboratory results taken from article PMC8688997, “Five Constituents Contributed to the Psoraleae Fructus-Induced Hepatotoxicity via Mitochondrial Dysfunction and Apoptosis” (Frontiers in Pharmacology, 2021).
Entries after “also recorded” stand apart in the source; their conditions may differ. Read-outs that look alike come from different tables or passages of the source.

What was measured:
L02 and HepG2 cells [1] = experiment: HCS LipidTOX Green intracellular lipid assay, L02 and HepG2 cells not distinguished; type: cell-based, human
Description: (§1) Here, L02 and HepG2 cells were plated at a density of […] in 96-well plates. Then, they were treated with bavachin (17, 34, and 68 μmol/L), psoralidin (11.5 23, and 46 μmol/L), bavachinin (15, 30, and 60 μmol/L), neobavaisoflavone (23.5, 47, and 94 μmol/L), and bakuchiol (13, 26, and 52 μmol/L) for 24 h. Then Hoechst 33342, eBioscience™ JC-1 Mitochondrial Membrane Potential Dye, CellROX Deep Red, and HCS LipidTOX™ Green Phospholipidosis Detection Reagent kits were used to characterize their cell counts, nuclear area, MMP, ROS, and intracellular lipid. Consequently, multi-parameter cytotoxicity was analyzed through high-content screening (HCS) analysis (IN Cell Analyzer 2500 HS; Cytiva, Marlborough, MA, USA). Then, a 20× objective was used to collect all images. Three independent wells were examined for each treatment, and 16 fields per well were captured during the analysis. Lastly, HCS analysis was performed using Automated Image and Cell Analysis software (IN Cell Analyzer 2000; USA).

L02 and HepG2 cells [2] = experiment: CCK-8 cell viability assay, L02 and HepG2 cells not distinguished; type: cell-based, human; conditions: for IC50: read-out: IC50 value (approximate, discussion); for effect on cell viability / hepatocyte toxicity (in words): L02 and HepG2 cells
Description: (§2) L02 and HepG2 cells were purchased from the China Infrastructure of Cell Line Resources (Beijing, China). They were cultured in Dulbecco’s modified Eagle’s medium (DMEM) high glucose medium (Gibco, Grand Island, NY, USA) supplemented with 10% (v/v) fetal bovine serum (FBS) (Gibco, Melbourne, VIC, Australia) and 1% U/ml of antibiotics (penicillin and streptomycin) at 37°C in an atmosphere containing 5% CO2.
The viability of L02 and HepG2 cells was determined using the CCK-8 assay. L02 and HepG2 cells (1 × 10^4 cells/well) were seeded into 96-well plates for 12 h until they visibly reached confluence. […] Consequently, these cells were incubated for 24 h, and 100 μl of 10% (v/v) CCK-8 medium solution was added to each well for 2 h. The absorbance (optical density (OD)) of the culture medium was detected at 450 nm using a Multiskan GO microplate reader (Thermo Fisher Scientific). Each experiment was repeated thrice, and each treatment was probed in at least six wells. The following equation was used to calculate the viability of the cells (%): Cell Viability (%)=ODcompound−ODblank/ODcontrol−ODblank×100%

L02 cells [3] = experiment: CCK-8 cell viability assay, L02 cells; type: cell-based, human
Description: as §2
(§3) The viability of L02 and HepG2 cells was determined using the CCK-8 assay. L02 and HepG2 cells (1 × 10^4 cells/well) were seeded into 96-well plates for 12 h until they visibly reached confluence. Then, the adherent cells were treated with varying concentrations of psoralen (120.86, 161.34, 215.12, 286.83, 382.44, 509.92, 679.90, and 906.53 μmol/L), isopsoralen (161.15, 214.87, 286.64, 382.47, 509.88, 679.85, 906.53, and 1,208.64 μmol/L), bavachin (16.40, 21.95, 29.23, 38.97, 52.04, 69.37, 92.49, and 123.32 μmol/L), psoralidin (8.92, 11.89, 15.82, 21.17, 28.19, 37.58, 50.19, and 66.90 μmol/L), bavachinin (11.82, 15.72, 21.04, 28.01, 37.35, 49.88, 66.49, and 88.65 μmol/L), neobavaisoflavone (5.21, 9.30, 16.50, 29.41, 52.36, 93.07, 165.53, and 294.46 μmol/L), and bakuchiol (11.70, 15.60, 20.75, 27.77, 36.97, 49.30, 65.84, and 87.76 μmol/L). Consequently, these cells were incubated for 24 h, and 100 μl of 10% (v/v) CCK-8 medium solution was added to each well for 2 h. The absorbance (optical density (OD)) of the culture medium was detected at 450 nm using a Multiskan GO microplate reader (Thermo Fisher Scientific). Each experiment was repeated thrice, and each treatment was probed in at least six wells. The following equation was used to calculate the viability of the cells (%): Cell Viability (%)=ODcompound−ODblank/ODcontrol−ODblank×100%

L02 and HepG2 cells [4] = type: cell-based, human
Description: (§4) L02 and HepG2 cells were cultured in 6-well plates at a density of 2 × 10^5 cells/well. Subsequently, they were incubated with bavachin, psoralidin, bavachinin, neobavaisoflavone, and bakuchiol for 24 h, and the cell supernatant was collected. Lastly, aspartate aminotransferase (AST), alanine aminotransferase (ALT), and ALP were detected using a CX4 Pro automatic biochemical analyzer (Beckman, Brea, CA, USA).

HepG2 cells [5] = experiment: CCK-8 cell viability assay, HepG2 cells; type: cell-based, human
Description: as §2, §3

L02 and HepG2 cells [6] = experiment: Annexin V-FITC/PI flow cytometry apoptosis assay, L02 and HepG2 cells not distinguished; type: cell-based, human
Description: (§5) First, L02 and HepG2 cells were cultured in 6-well plates at a density of 5 × 10^5 cells/well. Then, they were treated with bavachin (17, 34, and 68 μmol/L), psoralidin (11.5, 23, and 46 μmol/L), bavachinin (15, 30, and 60 μmol/L), neobavaisoflavone (23.5, 47, and 94 μmol/L), and bakuchiol (13, 26, and 52 μmol/L) for 48 h, harvested, and washed with PBS. The apoptosis rate was measured using Pharmingen™ FITC Annexin V Apoptosis Detection Kit I (BD, 556,547, USA) following the instructions from the manufacturer. With the use of a FACSCalibur cytometer (Becton Dickinson, San Jose, CA, USA), 1 × 10^4 cells were acquired and analyzed.

HepG2 cells [7] = experiment: ALP, ALT and AST in cell culture supernatant, HepG2 cells; type: cell-based, human; conditions: 46 μmol/L, 24 h
Description: as §4

L02 cells [8] = experiment: HCS CellROX Deep Red ROS assay, L02 cells; type: cell-based, human; conditions: only at 68 μmol/L, 24 h
Description: as §1

L02 cells [9] = experiment: ALP, ALT and AST in cell culture supernatant, L02 cells; type: cell-based, human
Description: as §4

L02 cells [10] = experiment: Annexin V-FITC/PI flow cytometry apoptosis assay, L02 cells; type: cell-based, human; conditions: 48 h
Description: as §5

HepG2 cells [11] = system: HepG2 cells; parameters: method as in Yu et al., 2020; conditions: another report; ref Yu et al., 2020; read-out: concentration inhibiting 50% cell viability; cited from earlier work
HepG2 cells [12] = experiment: HCS LipidTOX Green intracellular lipid assay, HepG2 cells; type: cell-based, human; conditions: 24 h
Description: as §1

L02 cells [13] = experiment: HCS LipidTOX Green intracellular lipid assay, L02 cells; type: cell-based, human; conditions: 24 h
Description: as §1

HepG2 cells [14] = experiment: HCS CellROX Deep Red ROS assay, HepG2 cells; type: cell-based, human
Description: as §1

L02 and HepG2 cells [15] = type: cell-based; conditions: human, 24 h
Description: as §1

L02 and HepG2 cells [16] = experiment: HCS JC-1 mitochondrial membrane potential (MMP) assay, L02 and HepG2 cells; type: cell-based, human; conditions: 60 μmol/L; 24 h
Description: as §1

[17] = Homo sapiens, HepG2, cell line not distinguished
[18] = Homo sapiens, L02, CCK-8, incubation 24 h or 48 h, read-out: IC50 toward L02 cells
[19] = Homo sapiens, HepG2, CCK-8, incubation 24 h or 48 h, read-out: IC50 toward HepG2 cells

CC(C)=CCc1cc2c(cc1O)oc(=O)c1c3ccc(O)cc3oc21 [Psoralidin, psoralidin]
effect on lipid accumulation, L02 cells compared with HepG2 cells (L02 and HepG2 cells [1]; human, 24 h): more substantial effect on lipid accumulation in L02 cells than HepG2 cells
IC50 (L02 and HepG2 cells [2]; [17]): ~25 µM
effect on cell viability / hepatocyte toxicity (in words) (L02 and HepG2 cells [2]): more potent inhibitory effects on cell viability than other compounds
IC50 (L02 cells [3]; [18]): 23.1 µM
increase of ALP, ALT, and AST levels (discussion) (L02 and HepG2 cells [4]): five times
induction of ALP, ALT, and AST contents (L02 and HepG2 cells [4]): more than fivefold
IC50 (HepG2 cells [5]; [19]): 23.4 µM
effect on cell apoptosis (in words) (L02 and HepG2 cells [6]): little effect on cell apoptosis
apoptotic cell percentage (L02 and HepG2 cells [6]; 46 μmol/L, 48 h, Figure 7C,D): 17%
ALP level, times higher than control (HepG2 cells [7]): 5.7 times
AST level, times higher than control (HepG2 cells [7]): 5.4 times

CC(C)=CCc1cc2c(cc1O)O[C@H](c1ccc(O)cc1)CC2=O [Bavachin, bavachin]
ROS level (L02 cells [8]): increased
ALP, ALT, and AST contents (L02 cells [9]): increased
effect on lipid accumulation, L02 cells compared with HepG2 cells (L02 and HepG2 cells [1]; human, 24 h, 68 μmol/L): stronger inducing effect on lipid accumulation in the HepG2 cells
IC50 (L02 and HepG2 cells [2]; [17]): ~30 µM
effect on cell viability / hepatocyte toxicity (in words) (L02 and HepG2 cells [2]): intense repression of cell viability
IC50 (L02 cells [3]; [18]): 33.9 µM
IC50 (HepG2 cells [5]; [19]): 34.8 µM
cell early apoptosis percentage (L02 and HepG2 cells [6]): markedly and progressively increased
apoptotic cell percentage (L02 cells [10]; L02 cells, increased from 6.7%, concentration not given): 44.47%

O=c1ccc2cc3ccoc3cc2o1 [Psoralen, psoralen]
effect on cell viability / hepatocyte toxicity (in words) (L02 and HepG2 cells [2]): very low or no toxicity
effect on cell viability / hepatocyte toxicity (in words) (L02 and HepG2 cells [2]; listed as psoralen): little hepatocyte toxicity
IC50 (L02 cells [3]; [18]): 284 µM
IC50 (HepG2 cells [11]): ~400 µM
IC50 (HepG2 cells [5]; [19]): 739 µM

C=C[C@@](C)(/C=C/c1ccc(O)cc1)CCC=C(C)C [Bakuchiol, bakuchiol]
lipid accumulation, times higher than control (HepG2 cells [12]; first of three doses (13 μmol/L)): 1.27 times
lipid accumulation, times higher than control (HepG2 cells [12]; second of three doses (26 μmol/L)): 2.37 times
lipid accumulation, times higher than control (HepG2 cells [12]; third of three doses (52 μmol/L)): 5.84 times
IC50 (L02 and HepG2 cells [2]; [17]): ~25 µM
effect on cell viability / hepatocyte toxicity (in words) (L02 and HepG2 cells [2]): more potent inhibitory effects on cell viability than other compounds
lipid accumulation, times higher than control (L02 cells [13]; 13 μmol/L): 1.88 times
lipid accumulation, times higher than control (L02 cells [13]; 26 μmol/L): 2.18 times
lipid accumulation, times higher than control (L02 cells [13]; 52 μmol/L): 3.37 times
IC50 (L02 cells [3]; [18]): 25.9 µM
effect on ALP, ALT, and AST contents (in words, discussion) (L02 and HepG2 cells [4]): little effect
increase of ALP, ALT, and AST levels (discussion) (L02 and HepG2 cells [4]): five times
ROS generation (HepG2 cells [14]): promoted ROS generation
effect on ROS induction, L02 cells compared with HepG2 cells (L02 and HepG2 cells [15]; 52 μmol/L): stronger effect on ROS induction in L02 cells than HepG2 cells
IC50 (HepG2 cells [5]; [19]): 34.5 µM
cell early apoptosis percentage (L02 and HepG2 cells [6]): markedly and progressively increased
effect on cell apoptosis (in words) (L02 and HepG2 cells [6]): induced apoptosis in a dose-dependent manner
necrotic cell percentages (L02 cells [10]; 52 μmol/L, Figure 7I): 34.6%

CC(C)=CCc1cc(-c2coc3cc(O)ccc3c2=O)ccc1O [Neobavaisoflavone, neobavaisoflavone]
ALP, ALT, and AST contents (L02 cells [9]): increased
effect on cell viability / hepatocyte toxicity (in words) (L02 and HepG2 cells [2]): intense repression of cell viability
IC50 (L02 cells [3]; [18]): 47.8 µM
effect on ROS induction, L02 cells compared with HepG2 cells (L02 and HepG2 cells [15]): stronger effect on ROS induction in L02 cells than HepG2 cells
IC50 (HepG2 cells [5]; [19]): 51.7 µM
cell early apoptosis percentage (L02 and HepG2 cells [6]): markedly and progressively increased
effect on cell apoptosis (in words) (L02 and HepG2 cells [6]): induced apoptosis in a dose-dependent manner

O=c1ccc2ccc3occc3c2o1 [Isopsoralen, isopsoralen]
effect on cell viability / hepatocyte toxicity (in words) (L02 and HepG2 cells [2]): little hepatocyte toxicity; also recorded: very low or no toxicity
IC50 (L02 cells [3]; Homo sapiens, L02, read-out: IC50 toward L02 cells): 77.9 µM
IC50 (HepG2 cells [5]; Homo sapiens, HepG2, read-out: IC50 toward HepG2 cells): 174 µM

bavachinin
ALP, ALT, and AST contents (L02 cells [9]; L02 cells, high dosage, 24 h): increased
effect on lipid accumulation, L02 cells compared with HepG2 cells (L02 and HepG2 cells [1]; 60 μmol/L): more substantial effect on lipid accumulation in L02 cells than HepG2 cells
lipid accumulation levels (L02 and HepG2 cells [1]; L02 and HepG2 cells, 24 h, p < 0.05, p < 0.01): promoted lipid accumulation
effect on cell viability / hepatocyte toxicity (in words) (L02 and HepG2 cells [2]): intense repression of cell viability
IC50 (L02 and HepG2 cells [2]; cell line not distinguished): ~30 µM
IC50 (L02 cells [3]; CCK-8, incubation 24 h or 48 h, read-out: IC50 toward L02 cells): 29.8 µM
ROS level (HepG2 cells [14]; HepG2 cells, 30 and 60 μmol/L, 24 h): increased
MMP levels (L02 and HepG2 cells [16]): reduced
IC50 (HepG2 cells [5]; CCK-8, incubation 24 h or 48 h, read-out: IC50 toward HepG2 cells): 29.1 µM
cell apoptosis at low dose concentration (L02 and HepG2 cells [6]; 15 μmol/L, 48 h): induced cell apoptosis
cell early apoptosis percentage (L02 and HepG2 cells [6]; as the concentration increased, compared with the control): markedly and progressively increased
